The values below come from ChEMBL document CHEMBL1201862, “PubChem BioAssay data set” (2004).

The source made the active and inactive calls. Where only a bound is given, the exact number is not on record here.

One data set addresses X-box-binding protein 1 (Homo sapiens, UniProt P17861). In kind it is functional, Cricetulus griseus.
In a further data set the test system is Vero. Put plainly: cells. Format: functional. The settings on record: Chlorocebus sabaeus.
A short description of data set [1]: THP-1 cell cytotoxicity, dose response, cytotoxicity control for non-replicating M. tuberculosis project (AID 489025). Format: functional.
A short description of data set [2]: HepG2 cell cytotoxicity, dose response, cytotoxicity control for non-replicating M. tuberculosis project (AID 489018). In kind it is functional. The settings on record: Mycobacterium tuberculosis.
A further data set can be described thus: cells. Format: functional.
The target in data set [3] is Glyceraldehyde-3-phosphate dehydrogenase (Homo sapiens, UniProt P04406).
Sequence of Glyceraldehyde-3-phosphate dehydrogenase (P04406 whole entry): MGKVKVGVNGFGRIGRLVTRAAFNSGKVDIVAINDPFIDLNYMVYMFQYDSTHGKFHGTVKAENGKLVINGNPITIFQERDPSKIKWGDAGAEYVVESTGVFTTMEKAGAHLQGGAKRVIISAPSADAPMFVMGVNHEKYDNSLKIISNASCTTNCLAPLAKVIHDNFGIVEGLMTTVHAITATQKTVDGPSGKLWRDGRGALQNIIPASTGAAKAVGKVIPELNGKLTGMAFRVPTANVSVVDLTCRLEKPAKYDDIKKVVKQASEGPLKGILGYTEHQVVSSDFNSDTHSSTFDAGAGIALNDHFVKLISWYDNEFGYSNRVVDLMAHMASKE
The target in data set [4] is T1, Alkaline phosphatase, tissue-nonspecific isozyme (Homo sapiens, UniProt P05186).
T1 sequence (P05186 whole entry): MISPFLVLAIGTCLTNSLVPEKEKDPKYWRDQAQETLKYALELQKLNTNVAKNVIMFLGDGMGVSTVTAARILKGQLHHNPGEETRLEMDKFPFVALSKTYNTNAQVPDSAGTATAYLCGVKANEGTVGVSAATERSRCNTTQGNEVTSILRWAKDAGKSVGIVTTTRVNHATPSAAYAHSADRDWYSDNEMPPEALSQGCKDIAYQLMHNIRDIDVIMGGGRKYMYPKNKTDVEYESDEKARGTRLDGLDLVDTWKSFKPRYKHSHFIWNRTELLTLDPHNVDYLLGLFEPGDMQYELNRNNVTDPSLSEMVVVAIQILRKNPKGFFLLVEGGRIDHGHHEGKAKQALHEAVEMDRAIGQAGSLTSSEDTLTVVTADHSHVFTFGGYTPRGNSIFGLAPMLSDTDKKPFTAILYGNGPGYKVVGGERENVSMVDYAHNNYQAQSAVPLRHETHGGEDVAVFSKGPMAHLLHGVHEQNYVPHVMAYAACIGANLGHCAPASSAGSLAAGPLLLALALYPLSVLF
Put plainly: human TNAP enzyme inhibitors, SAR follow-up, biochemical, luminescent, dose response (AID 1056).

Data set [5] is described as follows: inhibitors of firefly luciferase expression or activity, dose response, H4 neuroglioma cells, luminescence (AID 1990). Format: functional, cell-based.
Data set [6] in a line: Luminescence Cell-Based Dose Response HTS to Identify Inhibitors of 5'UTR Stem-Loop Driven Prion Protein mRNA Translation in H4 Neuroglioblastoma Cells. [Related pubchem assays: 1827 (Project Summary), 1813 (Primary HTS)]. In kind it is functional.
A short description of data set [7]: inhibitors of SNCA 5'UTR-driven reporter translation, confirmation, H4 neuroglioma cells, luminescence (AID 1988). In kind it is functional, cell-based.
The nature of data set [8]: microbe, parasite or virus in culture. Format: functional. The settings on record: Mycobacterium tuberculosis.
The nature of data set [9]: Vero E6 cell cytotoxicity, dose response, cytotoxicity control for non-replicating M. tuberculosis project, secondary assay (AID 492998). The following applies: Vero C1008. Format: functional, VeroE6.
For the next data set, the target named is T2, Hexokinase HKDC1 (Homo sapiens, UniProt Q2TB90).
T2 sequence (Q2TB90 whole entry): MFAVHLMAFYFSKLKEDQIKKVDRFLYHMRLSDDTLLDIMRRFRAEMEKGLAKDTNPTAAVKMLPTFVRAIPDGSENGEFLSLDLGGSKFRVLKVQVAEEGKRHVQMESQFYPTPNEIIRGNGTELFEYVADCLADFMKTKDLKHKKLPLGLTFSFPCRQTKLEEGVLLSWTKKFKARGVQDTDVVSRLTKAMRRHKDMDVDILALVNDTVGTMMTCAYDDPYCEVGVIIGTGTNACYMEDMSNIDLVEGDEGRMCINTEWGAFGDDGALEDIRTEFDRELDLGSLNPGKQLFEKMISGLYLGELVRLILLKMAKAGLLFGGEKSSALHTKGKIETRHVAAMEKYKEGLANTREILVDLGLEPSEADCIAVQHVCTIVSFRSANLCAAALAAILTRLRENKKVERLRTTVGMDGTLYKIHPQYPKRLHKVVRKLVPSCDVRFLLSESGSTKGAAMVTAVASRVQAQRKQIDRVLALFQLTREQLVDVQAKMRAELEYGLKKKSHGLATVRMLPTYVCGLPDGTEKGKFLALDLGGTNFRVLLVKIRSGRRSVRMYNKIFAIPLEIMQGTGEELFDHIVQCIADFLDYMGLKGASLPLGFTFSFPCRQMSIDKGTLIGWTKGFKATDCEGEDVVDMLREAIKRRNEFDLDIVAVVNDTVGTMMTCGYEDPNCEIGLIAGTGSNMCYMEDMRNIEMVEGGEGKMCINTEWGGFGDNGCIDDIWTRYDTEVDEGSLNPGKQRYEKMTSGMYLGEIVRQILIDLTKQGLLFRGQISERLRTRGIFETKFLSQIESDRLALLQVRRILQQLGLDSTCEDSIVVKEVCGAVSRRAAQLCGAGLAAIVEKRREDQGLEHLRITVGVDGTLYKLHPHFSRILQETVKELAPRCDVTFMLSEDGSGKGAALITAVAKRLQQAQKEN
Put plainly: HKDC1 hexokinase activators, dose response, biochemical, W721R variant (AID 504730). Format: functional.

A further data set deals with T3, Hexokinase-1 (Homo sapiens, UniProt P19367).
T3 sequence (P19367 whole entry): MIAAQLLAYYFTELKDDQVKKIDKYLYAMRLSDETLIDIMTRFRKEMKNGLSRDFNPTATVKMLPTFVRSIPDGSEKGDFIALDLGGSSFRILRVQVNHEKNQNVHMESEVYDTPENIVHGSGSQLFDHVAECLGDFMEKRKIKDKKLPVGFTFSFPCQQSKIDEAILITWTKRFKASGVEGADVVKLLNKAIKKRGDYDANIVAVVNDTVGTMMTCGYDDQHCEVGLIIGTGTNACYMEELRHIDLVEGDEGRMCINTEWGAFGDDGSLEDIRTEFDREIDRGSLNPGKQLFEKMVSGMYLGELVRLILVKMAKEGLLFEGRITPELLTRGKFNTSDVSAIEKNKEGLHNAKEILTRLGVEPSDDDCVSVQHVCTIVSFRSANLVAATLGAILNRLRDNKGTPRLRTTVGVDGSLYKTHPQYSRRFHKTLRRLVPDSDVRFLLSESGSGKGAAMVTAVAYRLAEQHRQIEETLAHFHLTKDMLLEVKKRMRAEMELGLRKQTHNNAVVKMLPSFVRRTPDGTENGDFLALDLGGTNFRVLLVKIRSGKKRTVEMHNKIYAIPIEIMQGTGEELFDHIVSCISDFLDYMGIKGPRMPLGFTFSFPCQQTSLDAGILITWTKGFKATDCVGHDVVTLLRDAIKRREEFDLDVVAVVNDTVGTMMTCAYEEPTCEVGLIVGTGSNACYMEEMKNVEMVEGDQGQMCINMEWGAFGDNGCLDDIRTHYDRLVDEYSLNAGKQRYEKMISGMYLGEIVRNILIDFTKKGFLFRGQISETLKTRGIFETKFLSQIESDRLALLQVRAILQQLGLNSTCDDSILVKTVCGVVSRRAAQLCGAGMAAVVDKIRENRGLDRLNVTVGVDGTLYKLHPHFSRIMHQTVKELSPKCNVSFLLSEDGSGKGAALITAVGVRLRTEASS
Kind of data set: hexokinase 1 activators, dose response, selectivity assay for HKDC1 activator project, biochemical (AID 504762). Format: functional.

Data set [10] concerns the target Cyclin-dependent kinase 5/CDK5 activator 1 (Homo sapiens, UniProt Q00535). Kind of data set: CDK5/p35 kinase inhibitors, dose response, biochemical, cherry-picked samples, set 2 (AID 504545).
The target of data set [11] is Dual specificity tyrosine-phosphorylation-regulated kinase 1A (Rattus norvegicus, UniProt Q63470). Format: biochemical, Homo sapiens.
A short description of data set [12]: Shn3 3'UTR reporter inhibitors, dose response, cell-based, Clone20 osteoblasts, firefly luciferase, cherry-picked (AID 624132).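 Further: firefly luciferase luminescence from reporter carrying the Shn3 3'UTR in osteoblasts.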 Format: functional.
A short description of data set [13]: HepG2 cell cytotoxicity, dose response, cytotoxicity control for Shn3 inhibitor project, CellTiter-Glo, cherry-picked (AID 624134). In kind it is functional, cell-based. Background: ATP-based viability assays read luminescence as a measure of living cells.
Data set [14] can be described thus: control 3'UTR Renilla luciferase suppression, dose response, counter-screen for Shn3 inhibitor project, cell-based, Clone20-Shn3RL, cherry-picked (AID 624133). In kind it is functional.
Data set [15] can be described thus: Luminescence Cell-Based Dose Retest to Confirm Inhibitors of Cancer Stem Cells. [Related pubchem assays (depositor defined):AID2717, AID2721]. Format: functional. The settings on record: Homo sapiens.
The next data set concerns INS1. Put plainly: beta cell apoptosis inhibitors, cytokine rescue, dose response, luminescence, retest (AID 449756).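 Further: cell death triggered by IL-1 beta plus TNF-alpha plus IFN-gamma mixture; protective hits raise ATP signal compared with cytokine alone wells.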 Format: functional, cell-based. The following applies: Rattus norvegicus.
Data set [16] relates to BJ. Put plainly: cytotoxicity toward BJ-TERT fibroblasts, dose response, cell-based, RAS-independent, luminescence (AID 1933). Format: functional. The settings on record: Homo sapiens.
In data set [17] the test system is BJ. Kind of data set: cells. In kind it is functional, cell-based. The settings on record: Homo sapiens.
A short description of data set [18]: growth suppression of PTEN-null colon cells, dose response, cell-based, HCT116 PTEN knockout (AID 1047).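 Further: HCT116 colon tumor cells with PTEN knocked out; cells exposed to compound for 60 hours before readout; potency for loss of cell viability measured by luminescence.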 In kind it is functional.
Data set [19] is described as follows: growth suppression of beta-catenin-knockout colon cells, dose response, cell-based, HCT116, human colon tumor (AID 1045).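 Further: HCT116 colon tumor cells with beta catenin knocked out; cells exposed to compound for 60 hours.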 Format: functional.
The subject of data set [20] is BJ. Kind of data set: cytotoxicity toward BJ-TERT-LT-ST fibroblasts, dose response, cell-based, RAS-independent, luminescence (AID 1935).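 Further: BJ fibroblasts immortalized with TERT plus LT and ST oncogenes.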 In kind it is functional. The following applies: Homo sapiens.
The nature of data set [21]: cytotoxicity toward DRD oncogenic fibroblasts, dose response, cell-based, non-viral oncogenic, luminescence (AID 1934). In kind it is functional. The settings on record: Homo sapiens.
The next data set concerns HeLa. Put plainly: HeLa cell cytotoxicity, dose response, cytotoxicity control, 24 h, cherry-picked samples (AID 504726).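 Further: potency for cytotoxicity as loss of luminescence signal.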 Format: functional, cell-based. The settings on record: Homo sapiens.
In data set [22] the target is T4, Hepatocyte nuclear factor 4-alpha (Homo sapiens, UniProt P41235).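 Further: biochemical luminescence-based dose-response counterscreen measuring inhibition of HNF4 dimerization, run alongside a screen for blockers of ABHD5–perilipin-5 interaction; split luciferase complementation of HNF4 fusion proteins in cell lysate measuring dimerization.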
T4 sequence (P41235 whole entry): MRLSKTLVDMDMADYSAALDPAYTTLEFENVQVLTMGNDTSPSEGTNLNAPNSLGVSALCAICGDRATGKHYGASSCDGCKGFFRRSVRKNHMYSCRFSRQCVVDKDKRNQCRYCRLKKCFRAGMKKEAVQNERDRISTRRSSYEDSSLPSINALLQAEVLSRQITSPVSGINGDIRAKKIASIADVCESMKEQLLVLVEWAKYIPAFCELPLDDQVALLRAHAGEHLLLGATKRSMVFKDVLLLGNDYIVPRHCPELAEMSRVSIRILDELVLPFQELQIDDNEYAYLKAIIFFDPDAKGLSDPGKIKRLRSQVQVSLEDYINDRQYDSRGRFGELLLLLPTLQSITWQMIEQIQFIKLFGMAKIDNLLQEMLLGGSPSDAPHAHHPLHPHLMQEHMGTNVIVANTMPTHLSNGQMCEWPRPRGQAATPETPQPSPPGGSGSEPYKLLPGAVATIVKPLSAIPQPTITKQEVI
In kind it is functional, cell-based.

Data set [23] in a line: inhibitors of PGC1a acetylation in cells, dose response, cell-based, cherry-picked samples (AID 720514).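 Further: potency may reflect raised or lowered acetylation signal.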 In kind it is functional.
A further data set deals with Cytochrome P450 2C9 (Homo sapiens, UniProt P11712).
Sequence of Cytochrome P450 2C9 (P11712 whole entry): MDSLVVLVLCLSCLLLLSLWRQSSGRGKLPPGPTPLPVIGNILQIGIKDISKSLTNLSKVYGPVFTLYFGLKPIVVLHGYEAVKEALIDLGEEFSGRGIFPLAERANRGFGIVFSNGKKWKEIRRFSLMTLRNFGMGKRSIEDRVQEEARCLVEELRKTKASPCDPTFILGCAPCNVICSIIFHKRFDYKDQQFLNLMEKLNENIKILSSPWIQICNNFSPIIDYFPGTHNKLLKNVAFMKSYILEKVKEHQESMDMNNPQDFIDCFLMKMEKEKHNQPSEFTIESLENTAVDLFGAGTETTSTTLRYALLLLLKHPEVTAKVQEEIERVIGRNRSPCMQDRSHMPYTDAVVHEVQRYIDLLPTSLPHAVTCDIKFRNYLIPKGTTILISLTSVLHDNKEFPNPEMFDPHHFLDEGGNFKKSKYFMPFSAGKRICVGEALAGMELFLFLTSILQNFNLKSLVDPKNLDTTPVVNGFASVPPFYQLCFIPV
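Wherever Absolute IC50 (XBP1) is given: confirmatory dose-response counter-screen serving a CHOP assay.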

Sequence of X-box-binding protein 1 (P17861 whole entry): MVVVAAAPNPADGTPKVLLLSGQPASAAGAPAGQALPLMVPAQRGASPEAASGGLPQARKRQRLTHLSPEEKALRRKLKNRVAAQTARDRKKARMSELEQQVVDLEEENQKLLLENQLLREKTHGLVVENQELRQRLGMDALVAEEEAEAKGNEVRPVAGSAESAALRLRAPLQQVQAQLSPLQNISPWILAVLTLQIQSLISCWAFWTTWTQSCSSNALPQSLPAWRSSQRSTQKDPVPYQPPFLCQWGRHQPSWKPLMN
Sequence of Cyclin-dependent kinase 5/CDK5 activator 1 (Q00535 whole entry): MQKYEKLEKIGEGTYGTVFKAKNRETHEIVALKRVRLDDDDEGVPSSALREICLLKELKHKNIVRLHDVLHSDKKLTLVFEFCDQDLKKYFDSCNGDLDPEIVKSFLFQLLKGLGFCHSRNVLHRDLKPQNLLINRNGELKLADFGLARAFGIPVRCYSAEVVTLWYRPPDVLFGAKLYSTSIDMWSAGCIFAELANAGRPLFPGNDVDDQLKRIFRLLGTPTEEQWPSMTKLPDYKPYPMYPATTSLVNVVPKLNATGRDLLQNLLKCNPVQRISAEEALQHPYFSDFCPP
Sequence of Cyclin-dependent kinase 5/CDK5 activator 1 (Q15078 whole entry, further chain): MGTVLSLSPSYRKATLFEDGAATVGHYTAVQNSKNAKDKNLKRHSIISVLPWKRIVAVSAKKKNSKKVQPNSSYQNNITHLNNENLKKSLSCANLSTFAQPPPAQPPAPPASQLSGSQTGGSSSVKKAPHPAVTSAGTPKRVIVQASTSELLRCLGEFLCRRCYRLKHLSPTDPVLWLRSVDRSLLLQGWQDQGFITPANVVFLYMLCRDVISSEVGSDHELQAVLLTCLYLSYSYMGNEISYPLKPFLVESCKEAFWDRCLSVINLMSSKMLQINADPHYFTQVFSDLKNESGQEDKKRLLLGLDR

As to `COc1cc(OC)c(OC)cc1/C=N/Nc1[nH]cnc2c3ccccc3nc1-2`, the “Absolute IC50 (XBP1)” value on X-box-binding protein 1 worked out at 10 µM. The CC50 with Vero is > 25 µM (active).
The term IC50 denotes the concentration at which inhibition is half-maximal. With `Cc1nc(-c2ccc(C(F)(F)F)cc2)sc1C(=O)NN`, the CC50 was 20.7 µM (active) in [1] and > 20 µM (active) in data set [2]. In the data set “cells”, the IC50 was 35.9 µM (active).
For `O=C(O)c1cc(-c2ccc(Cl)cc2)n[nH]1`, the half-maximal inhibitory concentration (IC50) in [3] was > 100 µM (not active); in [4], 6.14 µM (active).
In general, EC50 refers to the concentration that produces a half-maximal response. Consider `CCCCCC(=O)N/N=C(\C)c1ccccn1`, for which the EC50 was 12.5 µM (active) in data set [5], 7.26 µM (active) in data set [6] and 5.13 µM (active) in [7]. In addition, the CC50 in data set [8] was 21.4 µM (active); in [1], 11.1 µM (active); in data set [2], > 20 µM (active); in [9], 13.3 µM (active). Further, the IC50 in “cells” is 10.3 µM (active).
As to `Cc1cc(C2=NN=C(Nc3ccc(S(=O)(=O)N4CCOCC4)cc3)SC2)c(C)n1C`, the EC50 is 24.7 µM (inactive) at Hexokinase HKDC1 and 46 µM (inactive) on Hexokinase-1.
For orientation: AC50 means the concentration at which the activity in the assay is half-maximal. For `Cc1[nH]nc2c1-c1nc3ccccc3nc1C(C)(C)C2`, the half-maximal activity concentration (AC50) in data set [10] was 14.7 µM (active); in data set [11], 2.38 µM (active); in data set [12], 4.2 µM (active); in data set [13], 24.4 µM (active); in data set [14], 9.03 µM (active).
On to `COc1cc(Cl)ccc1S(=O)(=O)Nc1ccc2ccccc2c1`, for which the IC50 was > 100 µM (not active) in data set [3] and > 100 µM (inactive) in data set [4].
Regarding `FC(F)(F)c1nnc(-c2ccccc2)nc1Sc1ccc(Cl)cc1`, the concentration at half-maximal activity (AC50) is 4 µM (active) in data set [15]; 9.75 µM (active) with INS1; 14.7 µM (active) in data set [12]; 31.4 µM (active) in data set [13]; 21 µM (active) in [14]. In addition, the “Absolute IC50 (XBP1)” value at X-box-binding protein 1 was 10 µM.
For `CCC(=O)Nc1cccc(C(=O)/C=C/c2ccccc2)c1`, the half-maximal effective concentration (EC50) in the data set on BJ [16] is 9.74 µM (inconclusive); with BJ [17], 26 µM (active); in [18], 2.4 µM (active); in data set [19] it was 2.34 µM (active); in the data set with BJ [20], 20.9 µM (inconclusive); in data set [21], 11.2 µM (active). Further, the values for the AC50 (with HeLa; in data set [23]; on Cytochrome P450 2C9) were 23.6 µM (active), 14.2 µM (active) and “inconclusive”, respectively. Also, the IC50 in data set [22] is 2.86 µM (active).
